Results as given in PubChem BioAssay AID2060507 (Molecular Pharmacology Branch, DTP, NCI, 2025).
“And” between values parts separate entries of the source, which are not always exact repeats. Equal values may be shown once. Each block holds one compound with its values, some of them ahead of it.

System: 519858-162-T-J1-PDC complex spheroid viability
Test: Anticancer human tumor 519858-162-T-J1-PDC patient-derived colon adenocarcinoma cell line growth inhibition [GQUAD]
Conditions: for viability, T/C: stronger effect = lower value
Source text: DNA G-quadruplex Stabilizer Agents in Combinations in Complex Spheroids
A high-throughput screen of multi-cell type tumor spheroids was designed to identify active combinations of DNA G-quadruplex stabilizer agents and targeted small molecules. Complex spheroids include a stromal component modeled by human endothelial cells (HUVEC) and fibroblasts modeled by human mesenchymal stem cells (MSCs). The concentration ranges selected for each drug and investigational agent were based upon clinically achievable concentrations if the clinical Cmax of the agent was known.
Compounds. The drugs and investigational agents: pidnarulex (CX-5461; NSC782164), APTO-253 (NSC789042), BRACO-19 (NSC847499), peposertib (NSC802822), ceralasertib (NSC780249), elimusertib (NSC800525), camonsertib (NSC841442), AZD-1390 (NSC803789), olaparib (NSC753686), talazoparib (NSC767125), ART-558 (NSC835418), sotorasib (NSC818433), MRTX-1133 (NSC836407), SN-38 (NSC673596), topotecan (NSC609699), etoposide (NSC141540), doxorubicin (NSC123127), gemcitabine (NSC613327), 5-fluorouracil (NSC19893), paclitaxel (NSC125973), vemurafenib (NSC761431), panobinostat (NSC761190), R-306465 (JNJ-16241199; NSC773264), adavosertib (NSC754352), TP-3654 (NSC805149), carboplatin (NSC241240), KSQ-4279 (NSC840948), and staurosporine (NSC755774) were obtained from the National Cancer Institute (NCI) Developmental Therapeutics Program Chemical Repository (34). The FDA-approved anticancer drug set is available from the NCI Developmental Therapeutics Program. […] The stock solutions were prepared in dimethyl sulfoxide (DMSO, Sigma-Aldrich, St. Louis, MO, cat. D2650) at 800-fold the tested concentration and stored at -70 degrees C prior to their use. All drugs and investigational agents were tested over a range starting from a high concentration at or near the clinical Cmax and decreasing in half-log increments. If the clinical Cmax for an agent had not been determined, the highest concentration tested was 10 microM.
2.3 Cell Culture. All cells were maintained in an incubator at 37 degrees C and 5% CO2 with 95% humidity. The PDC lines were cultured according to standard operating procedures established by the NCI PDMR. All PDCs were thawed and cultured in Matrigel-coated flasks prepared with a working solution of 1X Ham's F-12 nutrient mix, without supplementation (Invitrogen, cat. 11765054), 100 U/mL penicillin-streptomycin (Invitrogen, cat. 15140122), and 2.5% Matrigel (Corning Inc., cat. 354248) for the first three passages. The 857933-349-R-J2-PDC line was cultured in 6C/Colon 1B media, which includes advanced DMEM/F-12 (Thermo Fisher Scientific, cat. 12634028), 10 mM HEPES (Thermo Fisher Scientific, cat. 15630080), 1X GlutaMAX supplement (Thermo Fisher Scientific, cat. 35050061), 0.1 mg/mL primocin (InvivoGen, cat. ant-pm-2), 10% defined fetal bovine serum, heat inactivated (HyClone Laboratories Inc., cat. SH30070.03HI), 50% L-WRN conditioned media (ATCC, cat. CRL-3276), 1.25 mM N-Acetyl-L-cysteine (Sigma-Aldrich, cat. A9165), 10 mM nicotinamide (Sigma-Aldrich, cat. N0636), 1X B-27 supplement (Thermo Fisher Scientific, cat. 17504044), 1X N-2 supplement (Thermo Fisher Scientific, cat. 17502048), 10 microM Y-27632 dihydrochloride (Tocris Bioscience, cat. 1254), and 50 ng/mL human EGF recombinant protein (Thermo Fisher Scientific, cat. PHG0311). The 485176-168-R4-J1-PDC line was cultured in Panc media, which includes all 6C/Colon 1B media components plus 100 ng/mL human FGF-10 (Thermo Fisher Scientific, cat. 100-26), 500 nM SB-431542 (Selleckchem, cat. S1067), and gastrin (Tocris, cat. 3006).
[…]
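Also: spheroids exposed to compounds for 7 days.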
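For viability, T/C in this document: 100% = DMSO vehicle control viability.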

IC50 (curve of compound): > 10000 nM and 3340 nM
SMILES: CC1COCCN1c1cc(C2(O)CC3CCC(C2)O3)c2cnn(-c3ccn[nH]3)c2n1 (stereo not drawn)
viability, T/C (compound 0.0316 µM): 109% and 94.9%
viability, T/C (compound 0.1 µM): 107% and 101%
viability, T/C (compound 0.316 µM): 89.3% and 63%
viability, T/C (compound 1 µM): 70.9% and 74%
viability, T/C (compound 3.16 µM): 93.6% and 47.8%
viability, T/C (compound 10 µM): 66.3% and 38%

SMILES: CC[C@@]1(O)C(=O)OCc2c1cc1n(c2=O)Cc2cc3c(CN(C)C)c(O)ccc3nc2-1 + Cc1[nH]c2ccc(F)cc2c1-c1nc2c3cccnc3c3ncccc3c2[nH]1
IC50 (curve of first compound, second compound 0.0316 µM): > 316 nM
IC50 (curve of first compound, second compound 0.1 µM): > 316 nM
IC50 (curve of first compound, second compound 0.316 µM): > 316 nM
IC50 (curve of first compound, second compound 1 µM): > 316 nM
IC50 (curve of first compound, second compound 3.16 µM): 0.999 nM
IC50 (curve of first compound, second compound 10 µM): > 316 nM
viability, T/C (second compound 0.0316 µM, first compound 0.000999 µM): 119%
viability, T/C (second compound 0.0316 µM, first compound 0.00316 µM): 106%
viability, T/C (second compound 0.0316 µM, first compound 0.00999 µM): 103%
viability, T/C (second compound 0.0316 µM, first compound 0.0316 µM): 76.5%
viability, T/C (second compound 0.0316 µM, first compound 0.0999 µM): 72.1%
viability, T/C (second compound 0.0316 µM, first compound 0.316 µM): 88.9%
viability, T/C (second compound 0.1 µM, first compound 0.000999 µM): 86%
viability, T/C (second compound 0.1 µM, first compound 0.00316 µM): 90.9%
viability, T/C (second compound 0.1 µM, first compound 0.00999 µM): 94.3%
viability, T/C (second compound 0.1 µM, first compound 0.0316 µM): 88.9%
viability, T/C (second compound 0.1 µM, first compound 0.0999 µM): 73.2%
viability, T/C (second compound 0.1 µM, first compound 0.316 µM): 75.5%
viability, T/C (second compound 0.316 µM, first compound 0.000999 µM): 58.7%
viability, T/C (second compound 0.316 µM, first compound 0.00316 µM): 97.1%
viability, T/C (second compound 0.316 µM, first compound 0.00999 µM): 99.3%
viability, T/C (second compound 0.316 µM, first compound 0.0316 µM): 93.8%
viability, T/C (second compound 0.316 µM, first compound 0.0999 µM): 97.2%
viability, T/C (second compound 0.316 µM, first compound 0.316 µM): 69.4%
viability, T/C (second compound 1 µM, first compound 0.000999 µM): 86%
viability, T/C (second compound 1 µM, first compound 0.00316 µM): 60.9%
viability, T/C (second compound 1 µM, first compound 0.00999 µM): 85.1%
viability, T/C (second compound 1 µM, first compound 0.0316 µM): 104%
viability, T/C (second compound 1 µM, first compound 0.0999 µM): 69.7%
viability, T/C (second compound 1 µM, first compound 0.316 µM): 75.9%
viability, T/C (second compound 3.16 µM, first compound 0.000999 µM): 56.4%
viability, T/C (second compound 3.16 µM, first compound 0.00316 µM): 55.6%
viability, T/C (second compound 3.16 µM, first compound 0.00999 µM): 46.5%
viability, T/C (second compound 3.16 µM, first compound 0.0316 µM): 48.6%
viability, T/C (second compound 3.16 µM, first compound 0.0999 µM): 78.1%
viability, T/C (second compound 3.16 µM, first compound 0.316 µM): 77.1%
viability, T/C (second compound 10 µM, first compound 0.000999 µM): 60%
viability, T/C (second compound 10 µM, first compound 0.00316 µM): 58.3%
viability, T/C (second compound 10 µM, first compound 0.00999 µM): 50.7%
viability, T/C (second compound 10 µM, first compound 0.0316 µM): 60.9%
viability, T/C (second compound 10 µM, first compound 0.0999 µM): 85.3%
viability, T/C (second compound 10 µM, first compound 0.316 µM): 60%

IC50 (curve of compound): > 10000 nM
SMILES: COc1cc(C2c3cc4c(cc3C(OC3OC5COC(C)OC5C(O)C3O)C3COC(=O)C23)OCO4)cc(OC)c1O (stereo not drawn)
viability, T/C (compound 0.0316 µM): 165% and 107% and 86%
viability, T/C (compound 0.1 µM): 90.6% and 89.7% and 81.6%
viability, T/C (compound 0.316 µM): 82.8% and 98% and 61.3%
viability, T/C (compound 1 µM): 123% and 112% and 70.1%
viability, T/C (compound 3.16 µM): 75% and 96.2% and 89.7%
viability, T/C (compound 10 µM): 80.6% and 72.3% and 83.6%

IC50 (curve of compound): > 10000 nM
SMILES: CC1COCCN1c1cc(C2(S(C)(=N)=O)CC2)nc(-c2ccnc3[nH]ccc23)n1 (stereo not drawn)
viability, T/C (compound 0.0316 µM): 118% and 109% and 93.2%
viability, T/C (compound 0.1 µM): 80.8% and 90.4% and 89.4%
viability, T/C (compound 0.316 µM): 80.8% and 111% and 79%
viability, T/C (compound 1 µM): 115% and 98.5% and 105%
viability, T/C (compound 3.16 µM): 51.5% and 98.4% and 90.3%
viability, T/C (compound 10 µM): 61.3% and 105% and 86.2%
